For data set [1] the following is noted: stated in the chemicals section, no method or reference given, cited from earlier work. As for the experimental part: The 0.9% NaCl (Sing-Tong, Taiwan), Acetonitrile (CAN; Fisher Scientific U.K. Ltd., Loughborough, England), Bupivacaine (Marcaine®; AstraZeneca, Cambridge, UK), formic acid (FA; Merck, Germany), DMSO (Merck, Darmstadt, Germany), Ketalar injection (50 mg/mL; Pfizer, New York, NY, USA), methanol (MeOH; AENCORE, Australia), PBS (Sigma, USA), pentobarbital (Health-Tech Pharmaceutical Co., Ltd., Taiwan), Rompun injection (2%; Bayer, Leverkusen, Germany), and sodium heparin bodene (Pty) (Limited Trading as Intramed, Maharashtra, India). Acetonitrile, chloroform, and methanol VWR International (Radno ...

Data set [2] is described as follows: Plasma pharmacokinetics of vancomycin in rats, LC-MS/MS with non-compartmental analysis. To be noted: rat plasma.
[3] abbreviates: day three, 150 mg/kg IV 3 min infusion qd x3, NCA, LC-MS/MS, mean, n = 6.

Results on one molecule are retold here after article PMC10304221, “Pharmacokinetic and Biomarker Quantification Studies on Vancomycin-Loaded PEGylated Liposomes and Its Potential to Reduce Vancomycin-Induced Kidney Injury: A Rat Study” (Pharmaceutics, 2023).

Each structure is given as a SMILES string. Where a name gives a salt, the structure may show the parent alone.

By MRT is commonly meant the average time that molecules of a dose stay in the body. Consider `CN[C@H](CC(C)C)C(=O)N[C@H]1C(=O)N[C@@H](CC(N)=O)C(=O)N[C@H]2C(=O)N[C@H]3C(=O)N[C@H](C(=O)N[C@H](C(=O)O)c4cc(O)cc(O)c4-c4cc3ccc4O)[C@H](O)c3ccc(c(Cl)c3)Oc3cc2cc(c3O[C@@H]2O[C@H](CO)[C@@H](O)[C@H](O)[C@H]2O[C@H]2C[C@](C)(N)[C@H](O)[C@H](C)O2)Oc2ccc(cc2Cl)[C@H]1O` [Vancomycin Hydrochloride, Vancomycin hydrochloride], for which the “Solubility in acetone, ether, and chloroform” value in data set [1] (acetone, ether, chloroform) is recorded as “insoluble”. In addition, the Solubility in methanol result in data set [1] (methanol) is “moderately soluble”. For the same molecule, the Solubility in water entry in data set [1] (water) is given as “more than 100 mg/mL”. Also, the “Reduction in plasma vancomycin concentration compared to the PEG-VANCO-lipo group” value in data set [2] (day one at 0.5 and 1 h, day three at 1, 2 and 4 h, 150 mg/kg IV qd x3, n = 3, p ≤ 0.05, Tukey's two-way ANOVA) was 2–5 fold. In data set [2] (day three, 150 mg/kg IV 3 min infusion qd x3, NCA (WinNonlin), LC-MS/MS, mean, n = 6), this molecule came in with a t1/2 of 13.26 h. Also, in data set [2] (setting [3]), the AUCINF turned out to be 1461.44 µg·h/mL, the “C0 (initial concentration estimated by back-extrapolation)” value is 186.69 µg/mL, the CL is recorded as 1.7533 mL/min/kg and the MRT is listed as 17.073 h.
